Assays:
[1] = target: T1, B1 bradykinin receptor (Homo sapiens, UniProt P46663); test: Antagonist activity at human bradykinin B1 receptor in IL1-beta stimulated IMR90 cells by FLIPR assay; type: functional, cell-based, IMR-90
T1 sequence (P46663 whole entry): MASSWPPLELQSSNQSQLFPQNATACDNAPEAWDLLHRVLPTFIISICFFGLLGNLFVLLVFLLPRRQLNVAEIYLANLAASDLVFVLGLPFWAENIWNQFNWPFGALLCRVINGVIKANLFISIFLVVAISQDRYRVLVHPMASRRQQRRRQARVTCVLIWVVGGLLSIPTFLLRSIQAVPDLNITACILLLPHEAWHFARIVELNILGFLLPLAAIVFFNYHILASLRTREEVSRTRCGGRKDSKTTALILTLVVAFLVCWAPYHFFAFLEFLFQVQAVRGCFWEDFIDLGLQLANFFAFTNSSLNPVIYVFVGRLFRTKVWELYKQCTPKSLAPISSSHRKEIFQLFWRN

[2] = target: T1, B1 bradykinin receptor; test: Displacement of [3H]DAKA from human bradykinin B1 receptor in IL1-beta stimulated IMR90 cells; type: cell-based, IMR-90

Row | IC50 [1] [nM] | Ki [2] [nM] | Structure (SMILES)
1 | > 10000 | – | O=C(Nc1ccccc1)c1cc(NC(=O)c2ccccc2Cl)[nH]n1
2 | 12 | – | O=C(Nc1c(Br)c(C(=O)NCCC2CCN(c3ccncc3)CC2)nn1-c1ccccn1)c1ccccc1Cl
3 | 560 | – | O=C(Nc1[nH]nc(C(=O)Nc2ccncc2)c1Br)c1ccccc1Cl
4 | 1200 | – | COc1ccc(-n2nc(C(=O)NCCC3CCN(c4ccncc4)CC3)c(Br)c2NC(=O)c2ccccc2Cl)cc1
5 | 1700 | – | NC(=O)[C@@H](NC(=O)c1n[nH]c(NC(=O)c2ccccc2Cl)c1Br)c1ccccc1
6 | 2000 | – | Cc1c(C(=O)Nc2ccccc2)n[nH]c1NC(=O)c1ccccc1Cl
7 | 200 | – | O=C(NCCC1CCN(c2ccncc2)CC1)c1cc(NC(=O)c2ccccc2Cl)[nH]n1
8 | 0.075 | – | O=C(Nc1[nH]nc(C(=O)Nc2ccc(CCC3=NCCN3)cc2)c1Br)c1ccccc1Cl
9 | 44 | – | Cn1nc(C(=O)NCCC2CCN(c3ccncc3)CC2)c(Br)c1NC(=O)c1ccccc1Cl
10 | 640 | – | Cn1nc(NC(=O)c2ccccc2Cl)c(Br)c1C(=O)NCCC1CCN(c2ccncc2)CC1
11 | 490 | 120 | O=C(Nc1[nH]nc(C(=O)NCCc2ccncc2)c1Br)c1ccccc1Cl
12 | 530 | 200 | O=C(Nc1[nH]nc(C(=O)Nc2ccccc2)c1Br)c1ccccc1Cl
13 | 23 | – | O=C(Nc1[nH]nc(C(=O)NCCC2CCN(c3ccncc3)CC2)c1F)c1ccccc1Cl
14 | 3.9 | – | O=C(Nc1[nH]nc(C(=O)NCCC2CCN(c3ccncc3)CC2)c1Cl)c1ccccc1Cl
15 | 320 | – | CN1CCC(N2CCC(CCNC(=O)c3nn(-c4ccccc4)c(NC(=O)c4ccccc4Cl)c3Br)CC2)CC1
16 | 700 | – | O=C(Nc1[nH]nc(C(=O)Nc2ccccc2)c1Cl)c1ccccc1Cl
17 | 1.8 | – | CN1CCC(N2CCC(CCNC(=O)c3n[nH]c(NC(=O)c4ccccc4Cl)c3Br)CC2)CC1
18 | 9.3 | – | Cc1c(C(=O)NCCC2CCN(c3ccncc3)CC2)n[nH]c1NC(=O)c1ccccc1Cl
19 | 71 | – | O=C(Nc1c(Br)c(C(=O)NCCC2CCN(c3ccncc3)CC2)nn1Cc1ccccc1)c1ccccc1Cl

Further lines, the compound ahead of its results:

Row | Structure (SMILES) | IC50 [1] [nM] | Ki [2] [nM]
20 | CN(C)CCn1nc(C(=O)NCCC2CCN(c3ccncc3)CC2)c(Br)c1NC(=O)c1ccccc1Cl | 1600 | –
21 | C[C@@H](NC(=O)c1n[nH]c(NC(=O)c2ccccc2Cl)c1Br)c1ccccc1 | 210 | –
22 | CC(C)(C)c1ccc(-c2n[nH]c(NC(=O)c3ccccc3Cl)c2Br)cc1 | 3200 | –
23 | O=C(Nc1[nH]nc(C(=O)N[C@@H]2CCCCNC2=O)c1Br)c1ccccc1Cl | 290 | –
24 | COC(=O)[C@@H](NC(=O)c1n[nH]c(NC(=O)c2ccccc2Cl)c1Br)c1ccccc1 | 290 | 73
25 | CN1CCC(CCNC(=O)c2n[nH]c(NC(=O)c3ccccc3Cl)c2Br)CC1 | 86 | –
26 | C[C@@H](NC(=O)c1n[nH]c(NC(=O)c2ccccc2Cl)c1Br)C(=O)N1CCCCC1 | 16 | –
27 | O=C(Nc1c(Br)c(C(=O)NCCC2CCN(c3ccncc3)CC2)nn1-c1ccccc1)c1ccccc1Cl | 3.5 | –
28 | Cc1nc(-c2n[nH]c(NC(=O)c3ccccc3Cl)c2Br)cs1 | 1100 | –
29 | CC(C)C(=O)Nc1[nH]nc(C(=O)NC2N=C(c3ccccc3)c3ccccc3NC2=O)c1Br (configuration not stated) | 650 | –
30 | O=C(Nc1[nH]nc(C(=O)N[C@@H]2CN3CCC2CC3)c1Br)c1ccccc1Cl | 60 | –
31 | O=C(Nc1[nH]nc(C(=O)NC2N=C(c3ccccc3)c3ccccc3NC2=O)c1Br)c1ccccc1Cl (racemic) | 5.2 | –
32 | Nc1cccc(N2CCC(CNC(=O)c3n[nH]c(NC(=O)c4ccccc4Cl)c3Br)CC2)n1 | 13 | –
33 | O=C(Nc1[nH]nc(C(=O)NC2N=C(c3ccccc3)c3ccccc3NC2=O)c1Br)c1ccccc1 (configuration not stated) | 49 | –
34 | O=C(Nc1c(Br)c(C(=O)N[C@@H]2CCCCNC2=O)nn1-c1ccccc1)c1ccccc1Cl | > 10000 | –
35 | O=C(Nc1[nH]nc(C(=O)NC2N=C(c3ccccc3)c3ccccc3NC2=O)c1Br)c1ccccc1F (configuration not stated) | 10 | –
36 | O=C(Nc1[nH]nc(C(=O)NCCC2CCN(c3ccncc3)CC2)c1Br)c1ccccc1Cl | 3 | –
37 | CC(=O)Nc1[nH]nc(C(=O)NC2N=C(c3ccccc3)c3ccccc3NC2=O)c1Br (configuration not stated) | > 10000 | –
38 | CC[C@@H](NC(=O)c1n[nH]c(NC(=O)c2ccccc2Cl)c1Br)C(=O)N(C)C | 82 | –
39 | O=C(Nc1c(Br)c(C(=O)N[C@@H]2N=C(c3ccccc3)c3ccccc3NC2=O)nn1-c1ccccc1)c1ccccc1Cl | > 10000 | –

Reference: ChEMBL document CHEMBL1148820, “Preparation and optimization of a series of 3-carboxamido-5-phenacylaminopyrazole bradykinin B1 receptor antagonists” (J Med Chem, 2007)
